Measurements taken from patent US20070249545A1, “DIHYDROFOLATE REDUCTASE INHIBITION BY EPIGALLOCATECHIN GALLATE COMPOUNDS” (priority 2004, published 2007).
Where two headings read alike, the source gives them in different places.

Assays:
bovine liver DHFR = biological target: T1, bovine liver DHFR (Bos taurus, UniProt P00376); test: Kinetic analysis of inhibition of bovine liver DHFR; type: biochemical
T1 construct: from tissue; host or cells: bovine liver
T1 sequence (P00376 1-187): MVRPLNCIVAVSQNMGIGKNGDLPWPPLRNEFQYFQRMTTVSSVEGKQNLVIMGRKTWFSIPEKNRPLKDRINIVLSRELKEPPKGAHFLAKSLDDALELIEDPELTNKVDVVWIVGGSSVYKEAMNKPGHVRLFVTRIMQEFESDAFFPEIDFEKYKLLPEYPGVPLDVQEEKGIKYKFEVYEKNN
Method: The activity of DHFR was determined at 25° C. by following the decrease of NADPH and DHF by absorbance measurements at 340 nm (ε=11,800 M^−1 cm^−1) by using a Perkin-Elmer Lambda-2 spectrophotometer with cuvettes of 1.0 cm light-path.
Experiments were performed at pH 7.58 and 25° C. in a buffer containing 2-(N-morpholino)ethanesulfonic acid (MES, 25 mM), sodium acetate (25 mM), tris(hydroxymethyl)aminomethane (Tris 50 mM), and NaCl (100 mM). To prevent the oxidation of catechins, the reaction mixture contained 1 mM ascorbic acid. The pH of the reaction was measured before and after of the experiment. The assays were started by the addition of enzyme. In the absence of the enzyme, the rate of change of absorbance was negligible. […]
Progress curves for the slow, tight-binding inhibition of bovine liver DHFR by EGCG were determined by continuously monitoring the disappearance of NADPH and DHF after initiation of the reaction by the addition of 3.3 nM enzyme. Reaction mixtures contained buffer, NADPH (100 μM), DHF (20 μM) and EGCG. Assuming that the concentration of free inhibitor is not substantially altered by the formation of an enzyme-NADPH-inhibitor complex, the progress curve for the inhibition in the presence of saturating NADPH is described by Eqn. (1): P=vst+(v0−vs)(1−exp(−k′t))/k′
where vs, v0 and k′ represent the steady-state velocity, initial velocity and apparent first-order rate constant, respectively.
The values of k′ at different EGCG concentrations were obtained by non-linear regression analysis of the progress curves. KI and KI* denote the respective dissociation constants for the initial and equilibrium binding of inhibitors to the enzyme-NADPH complex (FIG. 5).

S. maltophilia = test: Broth dilution MIC determination; type: cell-based, Stenotrophomonas maltophilia
Method: Eighteen strains of cotrimoxazole susceptible S. maltophilia were collected during the last year at the Hospital Universitario Virgen de la Arrixaca (Murcia, Spain) from clinical isolates. Bacteria were frozen at −70° C. in glycerol-meat medium and inoculated onto Columbia agar (Fluka Chemie GmbH, Madrid, Spain) supplemented with 5% of defibrinated sheep blood 48 and 24 h prior to susceptibility testing.
MICs for the 18 strains were determined by the broth dilution method at a final inoculum of 5×10^5 CFU/ml, according to the guidelines recommended by the NCCLS by using cation-adjusted Mueller-Hinton broth (Fluka). After incubation at 37° C. for 24 h, the lowest concentration of the two-fold serially diluted EGCG at which no visible growth occurred was defined as its MIC.

p16 = p16 methylation status in Jurkat T cells; type: cell-based, human; conditions: EGCG 20 μM, 7-days treatment
free rHDHFR = biological target: T2, free rHDHFR (Homo sapiens, UniProt P00374); test: Binding of EGCG to free DHFR by quenching of enzyme fluorescence; conditions: read-out: dissociation constant
T2 sequence (P00374 1-187): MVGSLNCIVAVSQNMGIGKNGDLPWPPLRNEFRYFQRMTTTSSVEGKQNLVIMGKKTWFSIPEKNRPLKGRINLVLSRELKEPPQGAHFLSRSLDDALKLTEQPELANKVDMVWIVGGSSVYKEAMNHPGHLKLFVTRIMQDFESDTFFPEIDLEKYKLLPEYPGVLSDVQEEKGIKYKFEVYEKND
Method: The binding of EGCG to free DHFR was determined by following the decrease in enzyme fluorescence that occurs on formation of the enzyme-inhibitor complex. […] The binding of EGCG quenches this fluorescence. The data for the resulting titration curves were used for dissociation constant determinations.

[1] = eighteen S. maltophilia isolates

Substance: (−)-epigallocatechin gallate [EGCG]
- k5 (bovine liver DHFR): 0.13 min⁻¹
- k5/k6 (bovine liver DHFR): 32.5 ratio
- k6 (bovine liver DHFR): 0.004 min⁻¹
- type of inhibition (bovine liver DHFR): slow tight-binding inhibitor
- Ki (bovine liver DHFR; equilibrium binding to enzyme-NADPH complex, read-out: KI*): 2.9 nM
- Ki (bovine liver DHFR; initial binding to enzyme-NADPH complex, pH 7.58, 25° C., read-out: KI): 109 nM
- MIC (S. maltophilia; S. maltophilia strain 1): 64 µg/mL
- MIC50 (S. maltophilia; [1]): 32 µg/mL
- MIC90 (S. maltophilia; [1]): 64 µg/mL
- MICs (range) (S. maltophilia; [1]): 4 to 256 µg/mL
- p16 methylation pattern (p16): changed from methylated to unmethylated
- Kd (free rHDHFR): 800 nM
